For data set [1], the system named is herpes simplex virus type I (HSV-1) strain McIntyre. The experiment in a line: Yield inhibition assay of HSV-1 in GMK cells. It is filed as cell-based. As for the experimental part:
To determine the specificity and toxicity of the peptides, Tyr-Arg-Gly-Pro-Gly, Gly-Pro-Gly and Arg-Gly-Pro-Gly were tested in (1) a plaque reduction assay and (2) a yield inhibition assay of herpes simplex virus type I (HSV-1) strain McIntyre.
The yield inhibition assay was performed as follows: HSV-1 was inoculated at a multiplicity of 0.5 pfu per GMK cell in the presence of the respective peptide at concentrations of 250 and 25 µg/ml. Virus adsorption was performed for 60 min. at room temperature. The cells were then rinsed five times with Hanks' Balanced Salt Solution (BSS) and incubated in a 5% CO2 atmosphere at 37°C with maintenance medium containing either peptides or acyclovir, according to the methods described in "Proceedings of a Symposium on Acyclovir", The American Journal of Medicine, July 20, (1982) which is incorporated herein by reference, or without any additives. Twenty-four hours p.i. the cells were freeze-thawed, scraped into the medium and tested for virus yield by the infectivity assay as outlined in Example 2. The results are shown in Table 7 where the plaque reduction values are the mean of two cultures and the yield of HSV-1 after 24 hours is the mean of two determinations and the values are presented in millions of pfu/ml.

For data set [2], the system named is HTLV IIIB/H9 N.Y. Here is the method: (§1) Table 1 lists the peptides and their amino acid sequences tested against the following virus/cell systems: • (1) HTLV-111B/H9 Denmark (obtained from Denmark, Bent Faber-Vestergard); • (2) HTLV-111B/H9 New York (obtained from Dr. William Hall, North Shore Hospital, Manhasset, N.Y.); and • (3) ELI-1/HUT (obtained from Dr. Levy, San Francisco, CA).
(§2) Virus at 100 50% tissue culture infectious doses (TCID50) and peptides at concentrations of 250 and 25 µg/ml were added to the cells simultaneously and incubated for 2 hours at 4°C with frequent stirring. Subsequently, the temperature was increased to 37°C and the mixtures were subjected to a second incubation for 2 hours. Following the second incubation, the cells were centrifuged at 325 x g and washed once in RPMI medium (Gibco Laboratories, NY). Cells, at a concentration of 5 x 10^5/ml, were then added to 24 multidish well plates at a final volume of 1.5 ml of growth medium (RPMI supplemented with 10% fetal calf serum (FCS), antibiotics and polybrene (2 µg/ml)), with the addition of peptides at dilutions of 250 or 25 µg/ml. […] As additional controls, two HIV infected cell cultures (designated pos. controls 1 and 2, Tables 3-5) and two uninfected cell cultures (designated neg. controls 1 and 2) were used.
(§3) Infected cells were continuously monitored for formation of syncytia and the growth medium supernatants were analyzed at days 9-12 p.i. for p24 antigen which is an indicator of HIV replication.
(§4) Briefly, the following protocol was used for detection of the p24 antigen. HIV p24 antigen was determined using a rabbit anti-p24 polyclonal antiserum as capture antibody and a biotinylated rabbit anti-p24 polyclonal antibody was used as detecting antibody in an avidin-horse radish peroxidase (HRP) ELISA. The sensitivity of the assay allowed detection of approximately 50 pg of p24 antigen per ml supernatant. […] Serial dilutions of the supernatants were made so as to detect p24 concentration in the most accurate range (< 2.0 absorbance units).
(§5) At the end of the experiment, the cells were collected and fixed on slides with acetone according to standard procedures as described in Jeansson et al., Exp. Cell Res., 161:181-188 (1985). The number of infected cells were then determined by indirect immunofluorescence using a human HIV positive serum diluted 1/100 and FITC conjugated antihuman IgG (Bio Merieux, France) diluted 1/200.
(§6) In tables 3-6, the p24 content of the supernatants of infected cells was determined by diluting the supernatants of infected cells in serial tenfold dilutions (1/10, 1/100, 1/1000 and 1/10,000) and analyzing in ELISA as described above. Results are indicated by the absorbance values (454nm) of respective dilutions.
The peptides in their carboxy and amido forms were obtained from Bachem Feinchemikalien AG (Switzerland, GPG-NH2 Bachem, GPG-COOH, Bachem, PG-NH2 Bachem and PG-COOH Bachem) and Syntello (Sweden, GPG-NH2 Syntello). The effectiveness of the peptides was determined by both p24 production and syncytia formation as described in Example 2.
In tables 8 and 9, the p24 content of the supernatants of infected cells was determined by diluting the supernatants in serial tenfold dilutions (1/10, 1/100, 1/1,000) and analyzing by ELISA as described in Example 2. Results are indicated by the absorbance values (454 nm) of respective dilutions.

The test system of data set [3] is ELI1/HUT. Here is the method:
as §1, §2, §3, §4, §5, §6

For another data set, the system named is HTLV IIIB/H9 Denmark. Here is the method: as §1, §2, §3, §4, §5, §6
The test system of data set [4] is HTLV-IIIB replication in H9 cells. Nature of the data set: Dose response and combination experiments, p24 ELISA. It is filed as cell-based, HIV. The following applies: Human immunodeficiency virus 1, IIIB, H9, read-out: approximate ID50 (p24 antigen reduced by 50%), supernatants diluted 1/5. As for the experimental part:
The results in Tables 10 and 11 were obtained as described in Example 2. The supernatants were tested for p24 on day 8 p.i. Supernatants were serially diluted (1/5, 1/50 and 1/500) and analyzed by ELISA as described in Example 2.

In data set [5] the test system is HTLV IIIB/H9 N.Y. Nature of the data set: Infectivity assay (p24 ELISA, syncytia formation, indirect immunofluorescence), HTLV-IIIB/H9 New York. It is filed as cell-based, HIV. Background: In an ELISA, binding on a coated surface is turned into a signal by an enzyme label.
Data set [6] has as its system ELI1/HUT. The experiment in a line: Infectivity assay (p24 ELISA, indirect immunofluorescence), ELI-1/HUT. It is filed as cell-based, HIV.
Another data set relates to HIV. It is filed as cell-based. Here is the method: Virus at 100 50% tissue culture infectious doses (TCID50) and peptides at concentrations of 250 and 25 µg/ml were added to the cells simultaneously and incubated for 2 hours at 4°C with frequent stirring. Subsequently, the temperature was increased to 37°C and the mixtures were subjected to a second incubation for 2 hours. […] Cells, at a concentration of 5 x 10^5/ml, were then added to 24 multidish well plates at a final volume of 1.5 ml of growth medium (RPMI supplemented with 10% fetal calf serum (FCS), antibiotics and polybrene (2 µg/ml)), with the addition of peptides at dilutions of 250 or 25 µg/ml. […]
as §3
Briefly, the following protocol was used for detection of the p24 antigen. HIV p24 antigen was determined using a rabbit anti-p24 polyclonal antiserum as capture antibody and a biotinylated rabbit anti-p24 polyclonal antibody was used as detecting antibody in an avidin-horse radish peroxidase (HRP) ELISA. […] Serial dilutions of the supernatants were made so as to detect p24 concentration in the most accurate range (< 2.0 absorbance units). […]

The subject of data set [7] is peripheral blood mononuclear cells. Nature of the data set: Viability of mononuclear cells, flow cytometry after propidium iodide. The class given is cell-based, human. As for the experimental part:
The possibility that Gly-Pro-Gly may affect the viability and/or function of normal human circulating lymphomonocytic cells was examined by adding Gly-Pro-Gly to unfractionated and T cell enriched (CD2^+ = nominal T cells; CD4^+ = putative helper/inducer T cell subset; CD8+ = putative cytotoxic/suppressor T cell subset) peripheral blood mononuclear cell suspensions from healthy normal blood donors.
Thus, the viability of peripheral blood mononuclear cells exposed to Gly-Pro-Gly (2 mM, 4 days) was 99.67% and that of corresponding unexposed cells was 99.66% (mean of 4 experiments).
In general terms: In flow cytometry, cells or beads pass a laser one at a time.

Data set [8] in a line: In vivo toxicity, growth of mice after intraperitoneal injections. The following applies: intraperitoneal injections starting at an age of 6 days; compared with controls. From the text: In an in vivo test of the toxicity of Gly-Pro-Gly, groups of mice were given intraperitoneal injections of the substance starting at an age of 6 days. Figure 3 also graphically depicts the results. […] The peptides are thus non-toxic even when given in large doses.

Results on 4 compounds are retold here after patent EP0545991B1, “PEPTIDES THAT BLOCK HUMAN IMMUNODEFICIENCY VIRUS INFECTIONS AND METHODS OF USE THEREOF” (VAHLNE, Anders, priority 1990, dated 1992).

Like-named read-outs stand apart in the source and are kept apart here. Where a SMILES comes first, the peptide text is derived from it.

In the case of `Nc1nc2c(ncn2COCCO)c(=O)[nH]1` [Acyclovir, acyclovir], the “yields of HSV-1” value in data set [1] (2 µM) is given as “significantly reduced”. Besides, in data set [1] (2 µM, mean of two determinations), the “YIELD OF HSV AFTER 24 HOURS” value is recorded as 0.9 millions of pfu/ml. Also, the activity at 2 µM in data set [1] (Human alphaherpesvirus 1, GMK, 24 h, read-out: YIELD OF HSV AFTER 24 HOURS PERCENT OF CONTROL) turned out to be 3%.
As to `Cc1cn([C@H]2C[C@H](N=[N+]=[N-])[C@@H](CO)O2)c(=O)[nH]c1=O` [AZT, azidothymidine], the “# OF SYNCYTIA/WELL Day 9” value with HTLV IIIB/H9 N.Y. [2] (0.2 µM) is reported as 22; with HTLV IIIB/H9 N.Y. [2] (2 µM), 11; with HTLV IIIB/H9 N.Y. [2] (20 µM), 0; in the data set on HTLV IIIB/H9 Denmark (0.2 µM), 16; in the data set on HTLV IIIB/H9 Denmark (2 µM), 10; with HTLV IIIB/H9 Denmark (20 µM) it was 0. Also, the “# OF SYNCYTIA/WELL Day 14” value in the data set with HTLV IIIB/H9 N.Y. [2] (0.2 µM) is on record as more than 100; with HTLV IIIB/H9 N.Y. [2] (0.2 µM, Table 6), 29; with HTLV IIIB/H9 N.Y. [2] (2 µM), more than 100; in the data set on HTLV IIIB/H9 N.Y. [2] (2 µM, Table 6), 4; in the data set with HTLV IIIB/H9 N.Y. [2] (20 µM), 11; in the data set with HTLV IIIB/H9 N.Y. [2] (20 µM, Table 6), 0. The “% OF POS CELLS” value is recorded as 10% with HTLV IIIB/H9 N.Y. [2] (0.2 µM); 10-15% in the data set with HTLV IIIB/H9 N.Y. [2] (2 µM); 0-1% in the data set with HTLV IIIB/H9 N.Y. [2] (20 µM); 5-10% in the data set on HTLV IIIB/H9 Denmark (0.2 µM); 5-8% in the data set on HTLV IIIB/H9 Denmark (2 µM); 0.1-1% with HTLV IIIB/H9 Denmark (20 µM). Moreover, the “PERCENTAGE OF AG POS CELLS” value with HTLV IIIB/H9 N.Y. [2] (0.2 µM, Table 6) is 30; with HTLV IIIB/H9 N.Y. [2] (2 µM, Table 6), 0.5-2. In addition, the “PERCENTAGE OF POS CELLS” value in the data set with ELI1/HUT [3] (0.2 µM) is listed as 10; with ELI1/HUT [3] (2 µM), 10; with ELI1/HUT [3] (20 µM) it was 10-15. For the same compound, the IC50 was approximately 0.4 µM in [4] (day 8 postinfection) and approximately 3.2 µM in [4] (twelve days after infection).
For “Arg-Gly-Pro-Gly-Arg (RGPGR; printed: Arg-Gly-Pro-Gly-Arg)”, in the data set on HTLV IIIB/H9 N.Y. [5] (25 µg/ml), the “# OF SYNCYTIA/WELL Day 9” value is on record as 14, the “# OF SYNCYTIA/WELL Day 14” value is listed as more than 100, the “% OF POS CELLS” value is listed as 5-10% and the “p24 1/10” value is reported as 2.16 absorbance (454 nm). Besides, in the data set with HTLV IIIB/H9 N.Y. [5] (25 µg/ml), the “p24 1/100” value was 0.853 absorbance (454 nm), the “p24 1/1,000” value was 0.268 absorbance (454 nm) and the “p24 1/10,000” value is 0.145 absorbance (454 nm). In the data set with HTLV IIIB/H9 N.Y. [5] (250 µg/ml), the “# OF SYNCYTIA/WELL Day 9” value turned out to be 14, the “# OF SYNCYTIA/WELL Day 14” value is more than 100, the “% OF POS CELLS” value is on record as 10% and the “p24 1/10” value is 2.116 absorbance (454 nm). Besides, in the data set on HTLV IIIB/H9 N.Y. [5] (250 µg/ml), the “p24 1/100” value is reported as 0.974 absorbance (454 nm), the “p24 1/1,000” value is listed as 0.334 absorbance (454 nm) and the “p24 1/10,000” value is reported as 0.15 absorbance (454 nm). Moreover, in the data set with ELI1/HUT [6] (25 µg/ml), the “PERCENTAGE OF POS CELLS” value is given as 10-15, the “p24 1/10” value was 3 absorbance (454 nm), the “p24 1/100” value is 2.296 absorbance (454 nm) and the “p24 1/1,000” value is 0.745 absorbance (454 nm). The “p24 1/10,000” value with ELI1/HUT [6] (25 µg/ml) is reported as 0.263 absorbance (454 nm). Moreover, in the data set on ELI1/HUT [6] (250 µg/ml), the “PERCENTAGE OF POS CELLS” value is recorded as 10-15, the “p24 1/10” value is 3 absorbance (454 nm), the “p24 1/100” value is 1.999 absorbance (454 nm) and the “p24 1/1,000” value is listed as 0.788 absorbance (454 nm). Further, in the data set on ELI1/HUT [6] (250 µg/ml), the “p24 1/10,000” value is 0.339 absorbance (454 nm). Moreover, the “infection of treated cells by p24 synthesis and syncytia formation” value in the data set on HIV (Tables 3-5) is “became infected”. Moreover, the “prevention of HIV infection by p24 levels and syncytia formation” value with HIV (Tables 3 to 6) is “did not prevent HIV infection”.
Take `NCC(=O)N1CCC[C@H]1C(=O)NCC(N)=O` [GPG, Gly-Pro-Gly-NH2] (H-Gly-Pro-Gly-NH2): the “viability of peripheral blood mononuclear cells” value in data set [7] (2 mM, 4 days, mean of 4 experiments, unexposed cells 99.66%) was 99.67%. Further, in data set [7] (doses as high as 2 mM, exposure as long as 4 days), the “effect on viability of cultured monocytes and lymphocytes” value is given as “did not appreciably affect the viability”. Also, the “influence on the growth of mice” value in [8] is recorded as “no significant influence”.
